Active and inactive are the calls of the source. The rule behind the calls is not given here.
What was measured:
[1] = biological target: T1, Estrogen receptor (Homo sapiens) (UniProt P03372); assay: Antagonist activity at ERalpha (unknown origin) expressed in human MCF7 cells assessed as inhibition of E2-induced response at 10 uM by dual luciferase reporter gene assay; assay type: cell-based
T1 sequence (whole entry): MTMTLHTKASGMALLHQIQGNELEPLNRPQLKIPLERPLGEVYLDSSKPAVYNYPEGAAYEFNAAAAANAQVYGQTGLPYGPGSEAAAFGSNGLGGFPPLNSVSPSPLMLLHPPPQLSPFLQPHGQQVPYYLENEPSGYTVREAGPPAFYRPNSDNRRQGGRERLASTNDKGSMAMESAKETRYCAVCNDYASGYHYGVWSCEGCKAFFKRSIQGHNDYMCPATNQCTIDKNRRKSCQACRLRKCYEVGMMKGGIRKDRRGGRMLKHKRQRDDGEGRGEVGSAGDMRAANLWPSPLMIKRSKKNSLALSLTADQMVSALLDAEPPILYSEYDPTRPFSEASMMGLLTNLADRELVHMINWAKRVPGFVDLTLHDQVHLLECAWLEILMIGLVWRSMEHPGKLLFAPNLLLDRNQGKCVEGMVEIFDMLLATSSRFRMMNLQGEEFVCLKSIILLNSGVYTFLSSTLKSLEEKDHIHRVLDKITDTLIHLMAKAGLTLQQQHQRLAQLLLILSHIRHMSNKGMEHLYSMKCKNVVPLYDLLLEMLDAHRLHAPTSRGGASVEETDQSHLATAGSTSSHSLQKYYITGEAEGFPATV

[2] = biological target: T1, Estrogen receptor (Homo sapiens); assay: Agonist activity at recombinant human GAL4-fused ERalpha expressed in HEk293 cells at 30 uM by luciferase reporter gene assay; assay type: cell-based
[3] = biological target: T2, Estrogen receptor (Homo sapiens, UniProt P03372); assay: biochemical
T2 sequence (P03372 whole entry): T1 sequence (whole entry)
Description: Displacement of Fluormone ES2 from full length recombinant human untagged ERalpha expressed in Sf insect cells by fluorescence polarization assay

[4] = biological target: T2, Estrogen receptor; assay: Agonist activity at recombinant human GAL4-fused ERalpha expressed in HEk293 cells by luciferase reporter gene assay; assay type: cell-based
[5] = biological target: T2, Estrogen receptor
Description: Antagonist activity at ERalpha (unknown origin) expressed in human MCF7 cells assessed as inhibition of E2-induced response by dual luciferase reporter gene assay

inhibition [1]	Activity [2]	IC50 [3]	EC50 [4]	IC50 [5]	SMILES
41%	inactive	1.04 µM	–	–	CCCC(CCC)(c1ccc(O)c(C)c1)c1ccc(C(=O)OCC)n1C
inactive	–	4.68 µM	> 30 µM	–	CCCC(CCC)(c1ccc(O)c(C)c1)c1cccs1
inactive	–	1.13 µM	> 30 µM	–	CCCC(CCC)(c1ccc(O)c(C)c1)c1cc(C)cs1
inactive	inactive	> 10 µM	–	–	CCCC(CCC)(c1ccc(O)c(C)c1)c1c[nH]c2cccc(OCc3ccccc3)c12
–	inactive	0.195 µM	–	0.45 µM	CCCC(CCC)(c1ccc(O)c(C)c1)c1ccc(C(=O)OCC)[nH]1
–	inactive	–	–	–	CCCC(CCC)(c1ccc(O)c(C)c1)c1ccc(O)c(C)c1
inactive	inactive	> 10 µM	–	–	CCCC(CCC)(c1ccc(O)c(C)c1)c1ccc(C(=O)O)[nH]1
inactive	inactive	> 10 µM	–	–	CCCC(CCC)(c1ccc(O)c(C)c1)c1ccc(C(=O)O)n1C
44%	inactive	0.613 µM	–	–	CCCC(CCC)(c1ccc(O)c(C)c1)c1c[nH]c2cc(OCc3ccccc3)ccc12

Source: ChEMBL document CHEMBL4219131, “Design and synthesis of estrogen receptor ligands with a 4-heterocycle-4-phenylheptane skeleton” (Bioorg Med Chem, 2018)
